{"source": "patent US20160022701A1", "about": "“NEUROACTIVE STEROIDS, COMPOSITIONS, AND USES THEREOF” (SAGE THERAPEUTICS, INC., priority 2013, published 2016)", "target": "T1, NMDA receptor (GRIN1/GRIN2A subunits) (Homo sapiens, UniProt Q05586+Q12879)", "T1 construct": "expressed in transfected cells; host or cells: HEK 293 cells, stably transfected with GRIN1 and transiently transfected with GRIN2A and CD8", "T1 sequence (Q12879 23-1464, other chains not shown)": "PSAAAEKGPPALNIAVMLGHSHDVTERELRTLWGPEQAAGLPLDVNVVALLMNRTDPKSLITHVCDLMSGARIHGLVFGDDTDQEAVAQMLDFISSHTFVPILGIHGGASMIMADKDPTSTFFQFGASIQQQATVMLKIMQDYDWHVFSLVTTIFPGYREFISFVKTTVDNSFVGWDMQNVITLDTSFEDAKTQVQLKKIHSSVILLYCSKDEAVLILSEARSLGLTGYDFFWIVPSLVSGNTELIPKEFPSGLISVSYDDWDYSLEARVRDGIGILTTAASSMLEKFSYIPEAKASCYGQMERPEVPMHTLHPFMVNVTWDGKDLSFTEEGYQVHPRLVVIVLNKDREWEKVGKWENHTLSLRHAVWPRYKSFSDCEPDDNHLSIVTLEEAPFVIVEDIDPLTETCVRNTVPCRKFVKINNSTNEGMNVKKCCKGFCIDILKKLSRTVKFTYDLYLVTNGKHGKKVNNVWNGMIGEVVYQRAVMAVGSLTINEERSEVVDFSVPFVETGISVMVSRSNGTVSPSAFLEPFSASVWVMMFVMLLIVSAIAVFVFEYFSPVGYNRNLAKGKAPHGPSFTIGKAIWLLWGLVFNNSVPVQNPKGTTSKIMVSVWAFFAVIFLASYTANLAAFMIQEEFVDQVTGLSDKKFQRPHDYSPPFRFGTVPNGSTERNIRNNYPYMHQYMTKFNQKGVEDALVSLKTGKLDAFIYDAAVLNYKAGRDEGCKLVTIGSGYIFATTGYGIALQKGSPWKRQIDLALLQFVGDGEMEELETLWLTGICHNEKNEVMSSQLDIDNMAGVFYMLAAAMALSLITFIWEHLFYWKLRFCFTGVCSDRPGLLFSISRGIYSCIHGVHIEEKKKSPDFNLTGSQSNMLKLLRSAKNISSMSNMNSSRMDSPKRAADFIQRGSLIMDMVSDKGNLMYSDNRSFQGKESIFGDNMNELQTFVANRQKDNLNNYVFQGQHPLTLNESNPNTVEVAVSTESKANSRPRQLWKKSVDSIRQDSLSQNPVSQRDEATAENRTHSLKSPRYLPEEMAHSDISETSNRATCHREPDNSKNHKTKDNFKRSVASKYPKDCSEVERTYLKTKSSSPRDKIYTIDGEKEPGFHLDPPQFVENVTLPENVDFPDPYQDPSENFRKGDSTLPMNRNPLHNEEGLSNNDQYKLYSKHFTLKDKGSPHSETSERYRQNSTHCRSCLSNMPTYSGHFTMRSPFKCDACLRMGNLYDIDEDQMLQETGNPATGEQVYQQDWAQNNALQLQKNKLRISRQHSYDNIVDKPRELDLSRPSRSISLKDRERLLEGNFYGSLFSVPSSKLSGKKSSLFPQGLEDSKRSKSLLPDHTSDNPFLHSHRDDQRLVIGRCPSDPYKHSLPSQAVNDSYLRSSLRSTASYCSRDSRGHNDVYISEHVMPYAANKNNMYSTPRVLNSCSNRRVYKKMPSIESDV", "assay": "NMDA potentiation, whole-cell patch-clamp in HEK cells", "format": "cell-based", "settings": "currents evoked by 30 μM NMDA and 5.0 μM Glycine, holding potential −80 mV; for activation at 0.1 µM: HEK293, compound 0.1 uM, read-out: NMDA 1a2A (%) Potentiation 0.1 uM; for activation at 1 µM: HEK293, compound 1 uM, read-out: NMDA 1a2A (%) Potentiation 1 uM"}
{"smiles": "C[C@H](CCC(C)(C)O)[C@H]1CC[C@H]2[C@@H]3CC[C@H]4C[C@](C)(O)CC[C@]4(C)[C@H]3CC[C@]12C", "values": [{"measurement": "activation at 0.1 µM", "result": 19, "unit": "%"}, {"measurement": "activation at 1 µM", "result": 30, "unit": "%"}]}
{"smiles": "COC[C@@]1(O)CC[C@@]2(C)[C@@H](CC[C@@H]3[C@@H]2CC[C@]2(C)[C@@H]([C@H](C)CCC(C)(C)O)CC[C@@H]32)C1", "values": [{"measurement": "activation at 0.1 µM", "result": 8, "unit": "%"}, {"measurement": "activation at 1 µM", "result": 25, "unit": "%"}]}
{"smiles": "C[C@H](CCC(C)(C)N)[C@H]1CC[C@H]2[C@@H]3CC=C4C[C@@H](O)CC[C@]4(C)[C@H]3CC[C@]12C", "values": [{"measurement": "activation at 0.1 µM", "result": -8, "unit": "%"}, {"measurement": "activation at 1 µM", "result": -19, "unit": "%"}]}
{"smiles": "C[C@H](CC(F)(F)CO)[C@H]1CC[C@H]2[C@@H]3CC=C4C[C@@H](O)CC[C@]4(C)[C@H]3CC[C@]12C", "values": [{"measurement": "activation at 0.1 µM", "result": 31, "unit": "%"}, {"measurement": "activation at 1 µM", "result": 95, "unit": "%"}]}
{"smiles": "CC(C)(O)COC[C@H]1CCC2C3CC=C4C[C@@](C)(O)CC[C@]4(C)C3CC[C@@]21C", "note": "(stereo partly drawn)", "values": [{"measurement": "activation at 0.1 µM", "result": -5, "unit": "%"}, {"measurement": "activation at 1 µM", "result": -14, "unit": "%"}]}
{"smiles": "CC(C)(O)CCC[C@H]1CCC2C3CC[C@H]4C[C@@](C)(O)CC[C@]4(C)C3CC[C@@]21C", "note": "(stereo partly drawn)", "values": [{"measurement": "activation at 0.1 µM", "result": 17, "unit": "%"}, {"measurement": "activation at 1 µM", "result": 105, "unit": "%"}]}
{"smiles": "C[C@H](CCC(C)(C)O)[C@H]1CC[C@H]2[C@@H]3CC=C4C[C@](C)(O)CC[C@]4(C)[C@H]3CC[C@]12C", "values": [{"measurement": "activation at 0.1 µM", "result": 13, "unit": "%"}, {"measurement": "activation at 1 µM", "result": 60, "unit": "%"}]}
{"smiles": "C[C@H](CCC(C)(C)O)[C@H]1CC[C@H]2[C@@H]3CC=C4C[C@@](C)(O)CC[C@]4(C)[C@H]3CC[C@]12C", "values": [{"measurement": "activation at 0.1 µM", "result": 128, "unit": "%"}, {"measurement": "activation at 1 µM", "result": 348, "unit": "%"}]}
{"smiles": "C[C@H](CCC1(O)CC1)[C@H]1CC[C@H]2[C@@H]3CC=C4C[C@@H](O)CC[C@]4(C)[C@H]3CC[C@]12C", "values": [{"measurement": "activation at 0.1 µM", "result": 74, "unit": "%"}, {"measurement": "activation at 1 µM", "result": 171, "unit": "%"}]}
{"smiles": "CC[C@@]1(O)CC[C@@]2(C)C(=CC[C@H]3[C@@H]4CC[C@H]([C@H](C)CCC(C)(C)O)[C@@]4(C)CC[C@@H]32)C1", "values": [{"measurement": "activation at 0.1 µM", "result": 23, "unit": "%"}, {"measurement": "activation at 1 µM", "result": 139, "unit": "%"}]}
{"smiles": "C[C@H](CCC(C)(C)O)[C@H]1CC[C@H]2[C@@H]3CC[C@H]4C[C@@H](O)CC[C@]4(C)[C@H]3CC[C@]12C", "values": [{"measurement": "activation at 0.1 µM", "result": 18, "unit": "%"}, {"measurement": "activation at 1 µM", "result": 85, "unit": "%"}]}
{"smiles": "C[C@H](CC(C)(C)O)[C@H]1CC[C@H]2[C@@H]3CC=C4C[C@@H](O)CC[C@]4(C)[C@H]3CC[C@]12C", "values": [{"measurement": "activation at 0.1 µM", "result": -5, "unit": "%"}, {"measurement": "activation at 1 µM", "result": 27, "unit": "%"}]}
{"smiles": "CC(O)CC[C@@H](C)[C@H]1CC[C@H]2[C@@H]3CC=C4C[C@@H](O)CC[C@]4(C)[C@H]3CC[C@]12C", "note": "(stereo partly drawn)", "values": [{"measurement": "activation at 0.1 µM", "result": 42, "unit": "%"}, {"measurement": "activation at 1 µM", "result": 98, "unit": "%"}]}
{"smiles": "CC[C@]1(O)CC[C@@]2(C)C(=CC[C@H]3[C@@H]4CC[C@H]([C@H](C)CCC(C)(C)O)[C@@]4(C)CC[C@@H]32)C1", "values": [{"measurement": "activation at 0.1 µM", "result": 181, "unit": "%"}, {"measurement": "activation at 1 µM", "result": 286, "unit": "%"}]}
{"smiles": "C[C@H](CCC(C)(C)O)[C@H]1CC[C@H]2[C@@H]3CC[C@H]4C[C@](C)(O)CC[C@@H]4[C@H]3CC[C@]12C", "values": [{"measurement": "activation at 0.1 µM", "result": 21, "unit": "%"}, {"measurement": "activation at 1 µM", "result": 52, "unit": "%"}]}
{"smiles": "C[C@H](CCC(C)(C)O)[C@H]1CC[C@H]2[C@@H]3CC[C@@H]4C[C@@](O)(C(F)(F)F)CC[C@]4(C)[C@H]3CC[C@]12C", "values": [{"measurement": "activation at 0.1 µM", "result": 9, "unit": "%"}, {"measurement": "activation at 1 µM", "result": 18, "unit": "%"}]}
{"smiles": "COC[C@]1(O)CC[C@@]2(C)[C@@H](CC[C@@H]3[C@@H]2CC[C@]2(C)[C@@H]([C@H](C)CCC(C)(C)O)CC[C@@H]32)C1", "values": [{"measurement": "activation at 0.1 µM", "result": 14, "unit": "%"}, {"measurement": "activation at 1 µM", "result": 110, "unit": "%"}]}
{"smiles": "C[C@H](CCC(C)(C)O)[C@H]1CC[C@H]2[C@@H]3CC[C@H]4C[C@](O)(C(F)(F)F)CC[C@]4(C)[C@H]3CC[C@]12C", "values": [{"measurement": "activation at 0.1 µM", "result": 59, "unit": "%"}, {"measurement": "activation at 1 µM", "result": 172, "unit": "%"}]}
{"smiles": "C[C@H](CCC(C)(C)O)[C@H]1CC[C@H]2[C@@H]3CC[C@H]4C[C@@](C)(O)CC[C@]4(C)[C@H]3CC[C@]12C", "values": [{"measurement": "activation at 0.1 µM", "result": 87, "unit": "%"}]}
{"smiles": "C[C@H](CCC(C)(C)O)[C@H]1CC[C@H]2[C@@H]3CC[C@H]4C[C@@H](O)CC[C@@H]4[C@H]3CC[C@]12C", "values": [{"measurement": "activation at 0.1 µM", "result": 19, "unit": "%"}, {"measurement": "activation at 1 µM", "result": 44, "unit": "%"}]}
{"smiles": "C[C@@H]([C@H]1CC[C@H]2[C@@H]3CC=C4C[C@@H](O)CC[C@]4(C)[C@H]3CC[C@]12C)C(C)(C)O", "values": [{"measurement": "activation at 0.1 µM", "result": 4, "unit": "%"}, {"measurement": "activation at 1 µM", "result": 24, "unit": "%"}]}
{"smiles": "CNC(C)(C)CC[C@@H](C)[C@H]1CC[C@H]2[C@@H]3CC=C4C[C@@H](O)CC[C@]4(C)[C@H]3CC[C@]12C", "values": [{"measurement": "activation at 0.1 µM", "result": 25, "unit": "%"}, {"measurement": "activation at 1 µM", "result": 19, "unit": "%"}]}
{"smiles": "C[C@H](CCC(C)(C)O)[C@H]1CC[C@H]2[C@@H]3CC=C4C[C@@H](O)CC[C@@H]4[C@H]3CC[C@]12C", "values": [{"measurement": "activation at 0.1 µM", "result": 28, "unit": "%"}, {"measurement": "activation at 1 µM", "result": 66, "unit": "%"}]}
{"smiles": "C[C@H](CCCO)[C@H]1CC[C@H]2[C@@H]3CC=C4C[C@@H](O)CC[C@]4(C)[C@H]3CC[C@]12C", "values": [{"measurement": "activation at 0.1 µM", "result": 39, "unit": "%"}, {"measurement": "activation at 1 µM", "result": 127, "unit": "%"}]}
{"smiles": "C[C@H](CCC(C)(C)O)[C@H]1CC[C@H]2[C@@H]3CC[C@H]4C[C@@](C)(O)CC[C@@H]4[C@H]3CC[C@]12C", "values": [{"measurement": "activation at 0.1 µM", "result": 25, "unit": "%"}, {"measurement": "activation at 1 µM", "result": 114, "unit": "%"}]}
{"smiles": "C[C@H](CCC(C)(C)O)[C@H]1CC[C@H]2[C@@H]3CC[C@H]4C[C@](O)(C(F)(F)F)CC[C@@H]4[C@H]3CC[C@]12C", "values": [{"measurement": "activation at 0.1 µM", "result": 14, "unit": "%"}, {"measurement": "activation at 1 µM", "result": 85, "unit": "%"}]}
{"smiles": "CC(CCC(C)(C)O)[C@H]1CC[C@H]2[C@@H]3CC=C4C[C@@H](O)CC[C@]4(C)[C@H]3CC[C@]12C", "note": "(stereo partly drawn) [Compound 1]", "values": [{"measurement": "activation at 0.1 µM", "result": 55, "unit": "%"}, {"measurement": "activation at 1 µM", "result": 197, "unit": "%"}]}
{"smiles": "CC(C)[C@H](O)CC[C@@H](C)[C@H]1CC[C@H]2[C@@H]3CC=C4C[C@@H](O)CC[C@]4(C)[C@H]3CC[C@]12C", "values": [{"measurement": "activation at 0.1 µM", "result": 82, "unit": "%"}, {"measurement": "activation at 1 µM", "result": 137, "unit": "%"}]}
{"smiles": "CC(C)(O)CCO[C@H]1CCC2C3CC[C@H]4C[C@@](C)(O)CC[C@]4(C)C3CC[C@@]21C", "note": "(stereo partly drawn)", "values": [{"measurement": "activation at 0.1 µM", "result": 6, "unit": "%"}, {"measurement": "activation at 1 µM", "result": 27, "unit": "%"}]}
